According to US20080108645A1, “Dihydrotetrabenazines And Pharmaceutical Compositions Containing Them” (CAMBRIDGE LABORATORIES, (IRELAND), LTD., priority 2004, published 2008):

Tests used:
Sigma σ2 Receptor = target: T1, Sigma σ2 Receptor (Rattus norvegicus, UniProt Q5U3Y7); test: Sigma σ2 receptor radioligand binding; set-up: species or system Wistar rat; settings: 3 nM [3H] Ifenprodil
T1 construct: Source: Wistar rat brain; from tissue; host or cells: Wistar rat brain
T1 sequence (Q5U3Y7 1-176): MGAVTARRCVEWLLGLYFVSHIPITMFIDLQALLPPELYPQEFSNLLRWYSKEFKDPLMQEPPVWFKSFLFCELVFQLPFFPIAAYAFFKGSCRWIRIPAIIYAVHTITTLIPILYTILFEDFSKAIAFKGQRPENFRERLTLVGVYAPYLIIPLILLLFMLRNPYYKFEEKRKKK
Description: (§1) (a) Adrenergic α2A Receptor: • Reference: S. Uhlen et al. J. Pharmacol. Exp. Ther., 271:1558-1565 (1994) • Source: Human recombinant insect Sf9 cells • Ligand: 1 nM [^3H] […] J. Pharmacol., 99:803-809, (1990) • Source: Wistar rat cerebral cortex • Ligand: 2 nM [3H]

Dopamine D3 Receptor = target: T2, Dopamine D3 Receptor (Homo sapiens, UniProt P35462); test: Dopamine D3 receptor radioligand binding; settings: 10 μM; 0.7 nM [3H] Spiperone
T2 construct: expressed in transfected cells; host or cells: CHO cells
Description: as §1

Male Sprague-Dawley rats = test: Spontaneous locomotor activity in rats (sedative properties); type: in vivo, rat; settings: for sedative effect (in words): 0.3-10 mg/kg i.p., 45 minutes and 3 hours after administration
Description: A study was carried out in rats to determine whether the dihydrotetrabenazine isomers of the invention have sedative properties. The effects of the isomers on spontaneous locomotor activity in rats were compared with the effects produced by tetrabenazine and haloperidol using the methods set out below.
Male Sprague-Dawley rats, (Charles River Laboratories, Saint-Germain/L'Arbresle, France), weighing 200-250 g at the beginning of the study, were used for the studies. The rats were housed, 2 or 3 per cage, in Makrolon type III cages, in a room set up with the following environmental conditions: temperature: 20±2° C., humidity: minimum 45%, air changes: >12 per hour, light/dark cycle of 12 h/12 h [on at 7:00 a.m.]. The rats were allowed to acclimatize to their conditions for at least five days before commencement of the study. The rats received food (Dietex, Vigny, France, ref. 811002) and water (tap water in water bottle) ad libitum.
Solutions of each test compound in corn oil were freshly prepared on the day of the experiment. Haloperidol was prepared in hydroxyethylcellulose, 0.5% in deionized water. Either the vehicle or the test compounds were administered as a single dose (0.3, 1, 3 and 10 mg/kg, 2 mL/kg i.p.). The reference compound haloperidol (1 mg/kg) was administered i.p. (2 mL/kg).
The animals were placed in plexiglass cages under a video camera in a room with low light intensity (maximum 50 lux). At forty five minutes and 3 hours after administration, locomotor activity was determined during 20 minute periods using a video image analyzer (Videotrack, View Point, France). Locomotor activity was recorded in the reference group (haloperidol) at 1 hour after administration. The number and duration of ambulatory movements and duration of inactivity was measured. At the end of the locomotor activity measurement (45 minutes and 3 hours), palpebral closure and arousal were be scored as follows in the plexiglass cage:
The number of occurrences and duration (in seconds) of ambulatory (large) movements and the duration of periods of inactivity (seconds) was determined during two 20 minute periods (45 minutes and 3 hours after administration) using a video image analyzer (Videotrack, ViewPoint, Lyon, France). Image tracking was performed using a video camera placed above the plexiglass cage, recording overall locomotor activity. Images recorded with the video camera were digitalized and displacement of the centre of gravity of the digital image spots was tracked and analyzed using the following method: the speed of displacement of the centre of gravity of the spot was measured and two threshold values were set to define the type of movement: threshold 1 (high speed) and threshold 2 (low speed). When the animal moved and the speed of displacement of the centre of gravity of the spot was above threshold 1, the movement was considered as an ambulatory movement.
The results were expressed as the means±SEMs of the 12 individual values. Statistical analyses were carried out using ANOVA (one way) and Dunnett's t-test and with the non parametric test of Kruskal-Wallis followed by a Mann & Whitney U-test for the sedation cotation. A p value of p<0.05 was taken as indicating significance.

Monoamine Oxidase MAO-A = target: T3, Monoamine Oxidase MAO-A (Homo sapiens, UniProt P21397); test: Monoamine Oxidase MAO-A inhibition; type: biochemical; settings: for inhibition at 10 µM: read-out: Percentage Inhibition of Enzyme Activity, MAO-A
T3 sequence (P21397 1-527): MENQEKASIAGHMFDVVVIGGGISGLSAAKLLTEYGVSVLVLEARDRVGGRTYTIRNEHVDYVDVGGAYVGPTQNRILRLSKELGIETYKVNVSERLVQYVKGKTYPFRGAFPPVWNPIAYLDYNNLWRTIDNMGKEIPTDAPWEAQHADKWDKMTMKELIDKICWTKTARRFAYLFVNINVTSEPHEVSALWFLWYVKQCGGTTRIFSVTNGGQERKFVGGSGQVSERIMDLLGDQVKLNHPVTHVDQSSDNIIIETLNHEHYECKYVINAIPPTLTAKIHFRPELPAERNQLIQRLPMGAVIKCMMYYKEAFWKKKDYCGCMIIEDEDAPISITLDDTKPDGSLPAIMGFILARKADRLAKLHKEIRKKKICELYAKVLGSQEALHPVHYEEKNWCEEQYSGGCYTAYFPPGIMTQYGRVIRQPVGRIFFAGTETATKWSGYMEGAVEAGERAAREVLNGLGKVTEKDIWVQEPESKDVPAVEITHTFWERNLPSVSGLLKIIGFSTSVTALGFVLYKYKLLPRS
Description: Isomers B and C were tested for their ability to inhibit enzymes involved in the processing of monoamines in the CNS, namely Catechol O-Methyl Transferase (COMT), Monoamine Oxidase A and Monoamine Oxidase B. The assay methods used are described below and the results are set out in Table 7. (a) Catechol O-Methyl Transferase (COMT) Inhibition • Source: […] None • Incubation time: 60 minutes @ 37° C. • Incubation buffer: 100 mM potassium phosphate, 10 mM MgCl2, 3 mM DTT containing 12 units/ml adenosine deaminase, pH 7.4 • Quantitation method: […]

[1] = 0.3 mg/kg i.p., 45 minutes after administration
[2] = 0.3 mg/kg i.p., 3 hours after administration
[3] = 1 mg/kg i.p., 45 minutes after administration
[4] = 1 mg/kg i.p., 3 hours after administration
[5] = 3 mg/kg i.p., 45 minutes after administration
[6] = 3 mg/kg i.p., 3 hours after administration
[7] = 10 mg/kg i.p., 45 minutes after administration
[8] = 10 mg/kg i.p., 3 hours after administration

T2 sequence (P35462 whole entry): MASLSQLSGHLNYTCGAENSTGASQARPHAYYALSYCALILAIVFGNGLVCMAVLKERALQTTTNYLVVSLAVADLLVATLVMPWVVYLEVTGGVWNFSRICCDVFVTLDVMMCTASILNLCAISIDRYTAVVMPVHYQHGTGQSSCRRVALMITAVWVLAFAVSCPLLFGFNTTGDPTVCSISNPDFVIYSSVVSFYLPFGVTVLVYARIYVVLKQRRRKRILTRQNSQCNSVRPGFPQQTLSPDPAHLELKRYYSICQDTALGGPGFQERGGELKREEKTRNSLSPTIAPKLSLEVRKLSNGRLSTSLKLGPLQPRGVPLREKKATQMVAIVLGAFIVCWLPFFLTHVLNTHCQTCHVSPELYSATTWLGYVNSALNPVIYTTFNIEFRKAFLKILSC

Row | Compound | Percentage Inhibition of Specific Binding, D3 Receptor (Dopamine D3 Receptor) [%] | Inactivity Duration (Male Sprague-Dawley rats; [1]) [s] | Large movements Duration (Male Sprague-Dawley rats; [1]) [s] | Large movements Occurrence (Male Sprague-Dawley rats; [1]) | Inactivity Duration (Male Sprague-Dawley rats; [2]) [s] | Large movements Duration (Male Sprague-Dawley rats; [2]) [s] | Large movements Occurrence (Male Sprague-Dawley rats; [2]) | Inactivity Duration (Male Sprague-Dawley rats; [3]) [s] | Large movements Duration (Male Sprague-Dawley rats; [3]) [s] | Large movements Occurrence (Male Sprague-Dawley rats; [3]) | Inactivity Duration (Male Sprague-Dawley rats; [4]) [s] | Large movements Duration (Male Sprague-Dawley rats; [4]) [s] | Large movements Occurrence (Male Sprague-Dawley rats; [4]) | Inactivity Duration (Male Sprague-Dawley rats; [5]) [s] | Large movements Duration (Male Sprague-Dawley rats; [5]) [s] | Large movements Occurrence (Male Sprague-Dawley rats; [5]) | Inactivity Duration (Male Sprague-Dawley rats; [6]) [s] | Large movements Duration (Male Sprague-Dawley rats; [6]) [s] | Large movements Occurrence (Male Sprague-Dawley rats; [6]) | Inactivity Duration (Male Sprague-Dawley rats; [7]) [s] | other results
1 | COc1cc2c(cc1OC)[C@H]1C[C@H](O)[C@@H](CC(C)C)CN1CC2 (single isomer, unassigned) [Isomer B, 3,11b-cis-dihydrotetrabenazine] | 7 | 346.1 ± 36.9 | 72.0 ± 9.6 | 268 ± 36 | 566.4 ± 44.3 | 28.9 ± 9.2 | 101 ± 29 | 334.0 ± 23.2 | 87.0 ± 7.6 | 297 ± 22 | 525.8 ± 28.6 | 34.5 ± 6.2 | 125 ± 18 | 342.2 ± 33.3 | 89.1 ± 12.4 | 313 ± 38 | 530.5 ± 38.0 | 31.1 ± 6.5 | 113 ± 17 | 333.1 ± 26.9 | Percentage Inhibition of Specific Binding, σ2 Receptor (Sigma σ2 Receptor; 10 μM): 64%; Large movements Duration (Male Sprague-Dawley rats; [7]): 84.0 ± 11.2 s; Large movements Occurrence (Male Sprague-Dawley rats; [7]): 298 ± 37; Inactivity Duration (Male Sprague-Dawley rats; [8]): 515.0 ± 53.0 s; Large movements Duration (Male Sprague-Dawley rats; [8]): 30.9 ± 6.4 s; Large movements Occurrence (Male Sprague-Dawley rats; [8]): 120 ± 26; sedative effect (in words) (Male Sprague-Dawley rats): no sedative effects were observed; inhibitory activity against monoamine oxidase isoform A (in words) (Monoamine Oxidase MAO-A): no inhibitory activity; inhibition at 10 µM (Monoamine Oxidase MAO-A): 3%
2 | COc1cc2c(cc1OC)[C@H]1C[C@@H](O)[C@@H](CC(C)C)CN1CC2 (single isomer, unassigned) [Isomer C, 3,11b-cis-dihydrotetrabenazine] | 9 | 323.7 ± 25.6 | 79.2 ± 10.0 | 285 ± 34 | 519.3 ± 33.7 | 31.4 ± 6.0 | 113 ± 19 | 324.6 ± 38.1 | 71.8 ± 8.3 | 295 ± 30 | 510.2 ± 44.9 | 30.3 ± 6.5 | 128 ± 24 | 322.7 ± 27.8 | 84.0 ± 9.4 | 308 ± 36 | 493.6 ± 38.5 | 30.2 ± 5.5 | 125 ± 22 | 368.7 ± 30.9 | inhibition at 10 µM (Sigma σ2 Receptor; read-out: Percentage Inhibition of Specific Binding, σ2 Receptor): 61%; Large movements Duration (Male Sprague-Dawley rats; [7]): 66.5 ± 9.9 s; Large movements Occurrence (Male Sprague-Dawley rats; [7]): 254 ± 32; Inactivity Duration (Male Sprague-Dawley rats; [8]): 465.7 ± 49.0 s; Large movements Duration (Male Sprague-Dawley rats; [8]): 42.7 ± 8.0 s; Large movements Occurrence (Male Sprague-Dawley rats; [8]): 164 ± 30; sedative effect (in words) (Male Sprague-Dawley rats): no sedative effects were observed; hyperlocomotor effect (in words) (Male Sprague-Dawley rats; 3 hours after administration): slight and non-significant hyperlocomotor effect; inhibitory activity against monoamine oxidase isoform A (in words) (Monoamine Oxidase MAO-A): no inhibitory activity; inhibition at 10 µM (Monoamine Oxidase MAO-A): 3%
